Tests used:
[1] = system: retrosplenial cortex (RSP) neurons; test: Two-photon imaging of RSP; format: in vivo, mouse
Experimental: Mice were anesthetized with isoflurane and the skull above retrosplenial cortex was removed and replaced with a 7 mm circular glass coverslip. For layer 1 experiments, ThylGcaMP6s mice were used. For layer 2/3 experiments, Cux2-CreER;Ai148 mice were used (tamoxifen dissolved in corn oil was injected intraperitoneally at 0.1 mg/g at least 2 weeks prior to imaging). For layer 5 experiments, Rbp4-Cre mice were injected locally in retrosplenial with 800 nL AAVdj-Ef1a-DIO-GCaMP6f (titer 5E12) at stereotactic coordinates (−3AP, 0.5 ML, −0.6DV). Mice were given >=1 week to recover before imaging. Awake, head-fixed imaging was performed on a standard two photon microscope (NeuroLabWare, Los Angeles, CA). A 16×0.8 NA Nikon objective was immersed in clear ultrasound gel for imaging (Aquasonic, Parker Laboratories); frame rate of 30 Hz. Although we observed oscillations in RSP with 50 mg/kg, we were concerned that 50 mg/kg may be too low a dose to sensitively detect a potentially weaker signal in visual cortex or layer 2/3, and so we used 80 mg/kg in these experiments.
Two-photon tiff stack videos were registered to the average image using the TurboReg ImageJ plug-in using rigid body transformations. […] Contaminating neuropil signal was estimated from an annulus surrounding each soma mask and removed using the function F(t)=Fsoma(t)−0.3*Fneuropil(t), where Fsoma(t) is the somatic DF/F and Fneuropil(t) is the DF/F from an annulus 4 pixels wide surrounding each soma mask. The resulting traces were detrended and z-scored. The full frame fluorescence (used for quantifying layer 1 neuropil oscillations) was computed by summing all of the pixels in each frame on each time point, and then computing DF/F the same way, with no neuropil subtraction step.
Each trace (corresponding to either a fiber photometry signal, a cellular two-photon signal, a widefield regional centroid, a widefield pixel, an sEEG trace, or a smoothed spike rate Neuropixels trace) was z-scored, and the power spectral density (PSD) was then estimated using Welch's method (pwelch( ) in Matlab), with a window size of 10*fs (15*fs for human sEEG) where fs is the sampling rate of the signal. The average band power within a specified band (i.e. 1-3 Hz) was then computed by integrating the PSD estimate (bandpower in Matlab). For displaying the traces of individual cells, traces were each zscored by subtracting the mean value of the trace (across the whole recorded time window) and dividing by the standard deviation of the trace. Unless otherwise indicated, the PSD was computed across the time window from minutes 10 to 11 post-injection.

deep RSP neurons = test: 32-channel two-shank silicon probe recording in deep RSP; format: in vivo, mouse; conditions: 50 mg/kg ketamine
Experimental: Mice were anesthetized with isoflurane, a small craniotomy (˜2 mm diameter) was performed above retrosplenial cortex, and a custom head-plate implanted. The dura was gently removed, and then covered with Kwik-Cast Sealant (World Precision Instruments). A skull screw was implanted and secured with cement in the right frontal skull bone. Mice were given 1-2 hours to recover. […] The deepest tip of the electrode was 800-1000 μm from the brain surface for all recordings.
Extracellular electrophysiological data were recorded using 32 channel acute silicon probes (ASSY-37 P-1, Cambridge Neurotech) acquired at 30 kHz. Following common average referencing, well-isolated single units were identified using KiloSort and Phy. Data were analyzed using custom Matlab scripts. Instantaneous firing rate was computed using 1 ms bins. We used a Hidden Markov Model with two states to label ON and OFF states. ON states were considered to represent bursts, and OFF states were inter-burst intervals. We fit the emission and transition parameters of the model using the Baum-Welch algorithm (Matlab hmmtrain with a convergence threshold of 1 e-6 and initial guesses of transition matrix: [0.95, 0.05; 0.05, 0.95] and emission: [0.5, 0.5; […]]), and then estimated the state assignment at each time point using the Viterbi algorithm (Matlab hmmviterbi). Various initial guesses were tested, and they yielded the same or similar model fit. For population analyses, a bin size of 2 was used. In FIG. 10, we are looking at the number of spikes in each burst, which can vary depending on the neuron being recorded, so we included every burst for every neuron. To quantify the consistency of the sequential onset of activation across bursts, we ranked each unit by its onset time for each burst. We then ordered the units according to their median rank across bursts. For each burst, we fit a linear model between the ranking in that burst and the median rank. The distribution of correlation coefficients was then plotted across bursts for each mouse and treatment condition.

mice [2] = test: Tail suspension test; format: in vivo, mouse
Experimental: Tail Suspension Test: Mouse activity was recorded using a 60 Hz web camera. Struggling activity was quantified for minutes 2-10. […] Illumination began 30 seconds before tails were secured with tape and suspended from the beam. Mice were excluded if they climbed on their own tails.

mice [3] = test: Open field test; format: in vivo, mouse; conditions: 5 min; vs saline; doses of b234
Description: Open Field Test: Mice were placed in an evenly illuminated 50 cm×50 cm open field test box. Mouse position was captured using a webcam and Viewer software (Biobserve).

mice [4] = test: Observation for seizure-like signs after ketamine; format: in vivo, mouse; conditions: dissociative doses of ketamine
Description: One characteristic of seizures is increased synchrony. While the ketamine-induced rhythm involved increased synchrony in neuronal firing, the initiation, spread, maintenance/termination, and behavior were distinguishable from typical seizures.

humans = conditions: human; cited from earlier work
mouse = conditions: cited from earlier work
mice [5] = test: Hot plate test
Experimental: Hot Plate Test: Mice were placed on the hot plate (Bioseb), which was set to 55° C. and surrounded by a clear circular perimeter. Mouse activity was recorded using two cameras from different angles. The experiment ended when the mouse jumped to escape or 90 seconds had elapsed. Care was taken to clean and dry the hot plate apparatus between animals. For optogenetic experiments, mice were connected to patch cords and then returned to a holding cage. Illumination began 30 seconds before mice were placed on the hot plate.

[6] = controls (wild-type), 50 mg/kg ketamine

CNC1(c2ccccc2Cl)CCCCC1=O (stereo not shown) [ketamine]
Oscillation / population synchrony in layer 2/3 RSP neurons ([1]; Cux2-CreER mice, ketamine): neither oscillating neurons nor population synchrony were observed
Oscillation / population synchrony in layer 5 RSP neurons ([1]; Rbp4-Cre mice, ketamine): exhibited synchronous activity
Hedge's g effect-size, mean 1-3 Hz power before/after ketamine, layer 2/3 RSP cells (FIG. 1I) ([1]; n=5 mice): −0.46
Hedge's g effect-size, mean 1-3 Hz power before/after ketamine, layer 5 RSP cells (FIG. 1I) ([1]; n=5 mice): 3.16
Oscillation in superficial neuropil, RSP vs neighboring visual cortex ([1]; two-photon, cranial window, 80 mg/kg): observed the oscillation in RSP but not neighboring visual cortex
Duration of silent states between bursts (deep RSP neurons): ~250 ms
Duration of synchronous bursts of deep RSP neurons (deep RSP neurons): ~250 ms
Participation of units in burst events (deep RSP neurons): nearly all identified units participated in every burst event
Spikes per burst of individual units (deep RSP neurons): 5-10 spikes/burst
Tail suspension-escape behavior vs. wild-type (mice [2]; both channel-knockouts (HCN1, GRIN1), ketamine): modestly-recovered tail suspension-escape behavior
Tail-suspension escape responses (mice [2]; ketamine >=25 mg/kg): suppressed tail-suspension escape responses
Open-field locomotion velocity (mice [3]): decreased velocity
Seizure-like signs (mice [4]): no rigidity, convulsive movements, absence-like states, or salivation/rearing/falling were observed
Dose at which potent dissociation is consistently reported (humans): 2 to 3 mg/kg
Doses for anti-depressant effects (humans): 0.3 to 1 mg/kg
Doses for anti-depressant effects (mouse): 3 to 10 mg/kg
Affective behavior (mice [5]; GRIN1 knockouts, ketamine): without recovery of affective behavior
Affective paw-licking (mice [5]; HCN1-KO mice with RSP Cre-virus, 50 mg/kg ketamine): strikingly restored affective paw-licking
Affective paw-licking (mice [5]; [6]): abolished affective paw-licking
Reflexive paw-flicks (mice [5]; [6]): preserving reflexive paw-flicks
Affective behaviors (mice [5]; ketamine 13 mg/kg): consistently preserved at 13 mg/kg
Affective behaviors (mice [5]; ketamine 25 mg/kg): selectively abolished at 25 mg/kg
Affective/emotional defensive behavior (paw-lick) (mice [5]; ketamine at 25 and 50 mg/kg): abolished affective/emotional
Motivational defensive behavior (jump-to-escape) (mice [5]; ketamine at 25 and 50 mg/kg): abolished
Reflexive responses (paw-flick) (mice [5]; ketamine dose series): did not reduce reflexive responses

From patent US20230346884A1, “Molecular Targets for Modulation of Dissociative and Associative States” (The Board of Trustees of the Leland Stanford Junior …, priority 2020, published 2023)
